The source of these data is patent publication US20150218212A1, “FLUORINATED EPOXYKETONE-BASED TETRAPEPTIDE COMPOUNDS AND USES THEREOF AS PROTEASOME INHIBITORS” (FLUORINOV PHARMA INC., priority 2012, published 2015).

What all share (format): cell-based, human
For assay [1], the system named is LOX IMVI. As to the kind of experiment: NCI screening panel, LOX IMVI (Melanoma). As to the method: (§1) Representative compounds of Formula I were screened using the National Cancer Institute (NCI) screening panel, which consists of a panel of human tumor cell lines, representing leukemia, melanoma, and cancers of the lung, colon, ovary, breast, prostate and renal system.
(§2) After 24 h, two plates of each cell line are fixed in situ with TCA, to represent a measurement of the cell population for each cell line at the time of drug addition (Tz). Experimental drugs are solubilised in dimethyl sulfoxide at 400-fold the desired final maximum test concentration and stored frozen prior to use. At the time of drug addition, an aliquot of frozen concentrate is thawed and diluted to twice the desired final maximum test concentration with complete medium containing 50 μg/mL gentamicin. Additional four, 10-fold or ½ log serial dilutions are made to provide a total of five drug concentrations plus control. Aliquots of 100 μl of these different drug dilutions are added to the appropriate microtiter wells already containing 100 μl of medium, resulting in the required final drug concentrations.
(§3) Following drug addition, the plates are incubated for an additional 48 h at 37° C., 5% CO2, 95% air, and 100% relative humidity. For adherent cells, the assay is terminated by the addition of cold TCA (trichloroacetic acid). Cells are fixed in situ by the gentle addition of 50 μl of cold 50% (w/v) TCA (final concentration, 10% TCA) and incubated for 60 minutes at 4° C. The supernatant is discarded, and the plates are washed five times with tap water and air dried. Sulforhodamine B (SRB) solution (100 μl) at 0.4% (w/v) in 1% acetic acid is added to each well, and plates are incubated for 10 minutes at room temperature. After staining, unbound dye is removed by washing five times with 1% acetic acid and the plates are air dried. Bound stain is subsequently solubilised with 10 mM trizma base, and the absorbance is read on an automated plate reader at a wavelength of 515 nm. For suspension cells, the methodology is the same except that the assay is terminated by fixing settled cells at the bottom of the wells by gently adding 50 μl of 80% TCA (final concentration, 16% TCA). Using the seven absorbance measurements [time zero, (Tz), control growth, (C), and test growth in the presence of drug at the five concentration levels (Ti)], the percentage growth is calculated at each of the drug concentrations levels. Percentage growth inhibition is calculated as: [(Ti−Tz)/(C−Tz)]×100 for concentrations for which Ti>/=Tz and [(Ti−Tz)/Tz]×100 for concentrations for which Ti<Tz.
(§4) Three dose response parameters are calculated for each experimental agent. Growth inhibition of 50% (GI50) is calculated from [(Ti−Tz)/(C−Tz)]×100=50, which is the drug concentration resulting in a 50% reduction in the net protein increase (as measured by SRB staining) in control cells during the drug incubation. The drug concentration resulting in total growth inhibition (TGI) is calculated from Ti=Tz. The LC50 (concentration of drug resulting in a 50% reduction in the measured protein at the end of the drug treatment as compared to that at the beginning) indicating a net loss of cells following treatment is calculated from [(Ti−Tz)/Tz]×100=−50. Values are calculated for each of these three parameters if the level of activity is reached. However, if the effect is not reached or is exceeded, the value for that parameter is expressed as greater or less than the maximum or minimum concentration tested.

The test system of assay [2] is SF-295. As to the kind of experiment: NCI screening panel, SF-295 (CNS Cancer). As to the method:
as §1, §2, §3, §4

Assay [3] deals with KM12. The experiment in a line: NCI screening panel, KM12 (Colon Cancer). As to the method:
as §1, §2, §3, §4

The test system of assay [4] is DU-145. The experiment in a line: NCI screening panel, DU-145 (Prostate Cancer). As to the method: as §1, §2, §3, §4
Assay [5] relates to A498. The experiment in a line: NCI screening panel, A498 (Renal Cancer). As to the method: as §1, §2, §3, §4
Assay [6] concerns T-47D. The experiment in a line: NCI screening panel, T-47D (Breast Cancer). As to the method:
as §1, §2, §3, §4

The test system of assay [7] is UACC-257. The experiment in a line: NCI screening panel, UACC-257 (Melanoma). As to the method:
as §1, §2, §3, §4

Each structure is given as a SMILES string.

For `CC(C)C[C@H](NC(=O)[C@H](COC(F)F)NC(=O)CN1CCOCC1)C(=O)N[C@@H](COC(F)F)C(=O)N[C@@H](CC(C)C)C(=O)[C@@]1(C)CO1` [Example 1, (2S)—N-[(1S)-1-(difluoromethoxymethyl)-2-[[(1S)-3-methyl-1-[(2R)-2-methyloxirane-2-carbonyl]butyl]amino]-2-oxo-ethyl]-2-[[(2S)-3-(difluoromethoxy)-2-[(2-morpholinoacetyl)amino]propanoyl]amino]-4-methyl-pentanamide], the Log10GI50 was −7.85 in assay [1]; −7.51 in assay [2]; −7.76 in assay [3]; −7.25 in assay [4]; −7.59 in assay [5]; −7.94 in assay [6]. This compound showed a Log10GI50 in assay [7] of −7.01. In addition, the Log10LC50 in assay [1] is recorded as −7.16; in assay [2] it was −6.09; in assay [3], −7.10; in assay [4], over −4.00; in assay [5], −6.06; in assay [6], −7.11. The Log10LC50 in assay [7] was over −4.00. Moreover, the Log10TGI50 in assay [1] is −7.51; in assay [2] it was −6.88; in assay [3] it was −7.43; in assay [4] it was −4.66; in assay [5], −6.93; in assay [6] it was −7.53. The same compound showed a Log10TGI50 in assay [7] of −5.62.

On to `CC(C)C[C@H](NC(=O)[C@H](COC(F)F)NC(=O)CN1CCOCC1)C(=O)N[C@@H](Cc1ccccc1)C(=O)N[C@@H](CC(C)C)C(=O)[C@@]1(C)CO1` [Example 2, (2S)-N-[(1S)-1-benzyl-2-[[(1S)-3-methyl-1-[(2R)-2-methyloxirane-2-carbonyl]butyl]-amino]-2-oxo-ethyl]-2-[[(2S)-3-(difluoromethoxy)-2-[(2-morpholinoacetyl)amino]propanoyl]amino]-4-methyl-pentanamide], for which the Log10GI50 in assay [1] is under −8.00; in assay [2], −7.80; in assay [3], −7.85; in assay [4] it was −7.34; in assay [5], −7.67; in assay [6], under −8.00. In assay [7], this compound registered a Log10GI50 of −7.23. Also, the Log10LC50 in assay [1] is −7.21; in assay [2] it was −6.42; in assay [3] it was −7.01; in assay [4], over −4.00; in assay [5] it was −6.23; in assay [7] it was −4.58. Besides, the Log10TGI50 was −7.62 in assay [1]; −7.28 in assay [2]; −7.43 in assay [3]; −5.00 in assay [4]; −7.12 in assay [5]; −7.55 in assay [6]. This compound showed a Log10TGI50 in assay [7] of −6.43.

Turning to `CC(C)C[C@H](NC(=O)[C@H](COC(F)F)NC(=O)CN1CCOCC1)C(=O)N[C@@H](Cc1ccccc1)C(=O)N[C@@H](Cc1ccccc1)C(=O)[C@@]1(C)CO1` [Example 3, (2S)-N-[(1S)-1-benzyl-2-[[(1S)-1-benzyl-2-[(2R)-2-methyloxiran-2-yl]-2-oxo-ethyl]amino]-2-oxo-ethyl]-2-[[(2S)-3-(difluoromethoxy)-2-[(2-morpholinoacetyl)-amino]propanoyl]amino]-4-methyl-pentan-amide], the Log10GI50 is on record as under −8.00 in assay [1]; −7.34 in assay [2]; under −8.00 in assay [3]; under −8.00 in assay [4]; −7.97 in assay [5]; under −8.00 in assay [6]. Further, the Log10GI50 in assay [7] is listed as −7.23. Further, the Log10LC50 is given as −7.13 in assay [1]; −6.24 in assay [2]; −7.16 in assay [3]; −4.48 in assay [4]; −6.34 in assay [5]; −4.53 in assay [7]. In addition, the Log10TGI50 was −7.71 in assay [1]; −6.75 in assay [2]; −7.74 in assay [3]; −5.79 in assay [4]; −7.26 in assay [5]; −7.59 in assay [6]. In addition, the Log10TGI50 in assay [7] was −6.40.

Turning to `CC(C)C[C@H](NC(=O)[C@H](COC(F)F)NC(=O)CN1CCOCC1)C(=O)N[C@@H](COC(F)F)C(=O)N[C@@H](Cc1ccccc1)C(=O)[C@@]1(C)CO1` [Example 4, (2S)-N-[(1S)-2-[[(1S)-1-benzyl-2-[(2R)-2-methyloxiran-2-yl]-2-oxo-ethyl]amino]-1-(difluoromethoxymethyl)-2-oxo-ethyl]-2-[[(2S)-3-(difluoromethoxy)-2-[(2-mor-pholinoacetyl)amino]propanoyl]amino]-4 methyl-pentanamide], the Log10GI50 was −7.77 in assay [1]; −7.48 in assay [2]; −7.70 in assay [3]; −7.19 in assay [4]; −7.42 in assay [5]; −7.68 in assay [6]. Moreover, the Log10GI50 in assay [7] was −6.71. Also, the Log10LC50 in assay [1] is −7.06; in assay [2], −5.22; in assay [3], −6.44; in assay [4], over −4.00; in assay [5], −5.65; in assay [7] it was −4.14. The Log10TGI50 in assay [1] is given as −7.42; in assay [2], −6.60; in assay [3], −7.29; in assay [4], −4.91; in assay [5], −6.61; in assay [6], −7.08. Moreover, in assay [7], the Log10TGI50 is on record as −6.11.

In the case of `CC(C)C[C@H](NC(=O)[C@H](COC(F)F)NC(=O)[C@H](COC(F)F)NC(=O)[C@H](CCc1ccccc1)NC(=O)CN1CCOCC1)C(=O)[C@@]1(C)CO1` [Example 7, (2S)-N-[(1S)-1-(difluoromethoxymethyl)-2-[[(1S)-1-(difluoromethoxymethyl)-2-[[(1S)-3-methyl-1-[(2R)-2-methyloxirane-2-carbo-nyl]butyl]amino]-2-oxo-ethyl]amino]-2-oxo-ethyl]-2-[(2-morpholinoacetyl)amino]-4-phenyl-butanamide], the Log10GI50 is listed as −7.99 in assay [1]; −7.60 in assay [2]; −7.78 in assay [3]; −7.42 in assay [4]; −7.40 in assay [5]; −7.85 in assay [6]. Besides, the Log10GI50 in assay [7] was −6.80. Besides, the Log10LC50 is −7.13 in assay [1]; −6.15 in assay [2]; −7.11 in assay [3]; over −4.00 in assay [4]; −6.06 in assay [5]; over −4.00 in assay [6]. For the same compound, the Log10LC50 in assay [7] is over −4.00. Besides, the Log10TGI50 is −7.56 in assay [1]; −6.97 in assay [2]; −7.45 in assay [3]; −4.75 in assay [4]; −6.75 in assay [5]; −7.32 in assay [6]. The compound also had a Log10TGI50 in assay [7] of −6.03.
